Key:
[1] = racemate; from Aberg et al., Acta pharmacol. et toxicol. 41 (1977), Table 1 at p. 435; cited from earlier work
[2] = Skin temperature within intracutaneous wheals compared with skin outside the wheals during anesthesia; format: in vivo, humans; settings: for T1 °C Intracutaneous Wheal / °C Difference: HCl-salt; for T1 °C Intracutaneous Wheal: center of wheal, 10 minutes after intracutaneous injection, mean of 6 wheals; for °C Difference: T1 (wheal) minus T2 (controls outside wheal), 10 minutes after injection; for change of temperature over the wheal, in words: Table 4, Conc. 0.25 %
Experimental: The means value of 6 wheals for each substance forms the basis for the values. The control values, however, represent the mean value obtained from 4 different sites measured outside the wheals 90 degrees apart and 2 centimeters from the wheal's center.
In the temperature measurements, an Oriel temperature apparatust has been used. This is battery driven and is connected to a detector (diameter, 2,5 mm) and has an accuracy of ± 0.1°C. The temperature of the skin is measured by pressing the detector against the skin with a pressure of 100 grams.
against the skin until a constant temperature is obtained.
In Table 4, T, is the measurement obtained at the center of the wheal, and T2 is the average of four measurements taken 90 degrees apart outside of the wheal and within 2 centimeters of the wheal's center.

[3] = racemate; from Aberg et al., Acta pharmacol. et toxicol. 41 (1977), Table 1 at p. 435; cited from earlier work; remark: listed apart in the source
[4] = in vivo
Source text: • ^* Trypan blue test; Hoppe et al. (1950), 39, 147-151 "Use Of Trypan Blue And Rabbit Eye Tests For Irritation", J. Amer. Pharm. Ass. (Scient. Ed.), the values are approximate threshold values of tissue irritancy. • ^** LD50, i.e. 50% mortality of mice. • ^*** Studies On The Duration Of Local Anaesthesia: Structure/Activity Relationships In A Series Of Homologous Local Anaesthetics, by G. Aberg, et al., Acta pharmacol. et toxicol., 41 (1977) pp. 432-443, Table 1 at p. 435.

[5] = in vivo; settings: mouse, iv, read-out: LD50** I.v. (intravenous) mg/kg/mouse
[6] = test system: periphera nerve ending of the epidermis; test: Infiltration anesthesia, intracutaneous wheals on forearms of man (pin-prick); format: in vivo; settings: compared among 12 optically active and inactive structures
Experimental: By use of intracutaneous wheals it is possible to measure the analgesic effect of an anesthetic on the periphera nerve ending of the epidermis.
This technique gives information about: • (1) the duration of anesthesia. • (2) Epidermal diffusion. • (3) Vascular effects. [formula]
' Infiltration anesthesia on forearms of man. The test solutions were injected intracutaneously on the dorsum of the forearms of 12 healthy volunteers, 20-25 years old. Three wheals were made on each arm in a rotating system in a double-blind fashion. The local anesthetic effect was tested using a pin-prick technique. the "duration of anesthesia" was defined as the time during which none of six pin-pricks into the wheel was felt. The method had been described by Dhuner et al. (1972). Dhuner, K. G., D. H. Lewis, A. Nyquist, D. Selander & E. Stig: Vascular effects of the isomers of mepivacaine, Acta Anaest. Scand. 1972, Supple. 48, 45-52. • * L=Laevo, R=Racemic, D=Dextro • ** C equals grams per 100 ml of solution. • ^*** New isolated stereoisomers [formula]

[7] = test system: ulnar volar nerves; test: Digital nerve blocks in man (finger blockade); format: in vivo; settings: compared among 12 optically active and inactive structures
Experimental: ^2 Digital nerve blocks in man. The test solutions were injected to block the ulnar volar nerves on the 2nd and 4th fingers of the same volunteers who has participated in the intracutaneous wheal tests described above. The tests were carried out in a double blind fashion in a rotating system, so that each solution was used with equal frequency on each of the blocked fingers. A total of four injections, 1.0 ml per injection, was done in each subject. One week later the procedure was repeated in the same subjects using the remaining test solutions. This method has been described by Dhuner et al. (1972) (for citation see Table 2 footnote 1). To measure the efficacy and duration of the blocks, the individual fingers were pricked rapidly 10 times with a needle algesimeter and the number of painful pricks noted. Each finger was tested every five minutes until complete recovery. The time of complete anesthesia has been called "duration of anesthesia". • ^* i.e. - the time from injection to complete analgesia • ^** i.e. - the number of successful anesthesias of total number of anesthesias performed (no anesthesia is possible if the ulnar volar nerves are not contacted by the anesthetic) • *** new isolated stereoisomers

| Compound | T1 °C Intracutaneous Wheal ([2]; Conc. 0.25 %) [°C] | °C Difference ([2]; Conc. 0.25 %) [°C] | Tissue* toxicity limits in % [4] [%] | further results |
| --- | --- | --- | --- | --- |
| CCCN1CCCCC1C(=O)Nc1c(C)cccc1C (racemic) [No. 3, N-n-propylpipecolic acid-2,6-xylidide] | 33.1 | −0.1 | – | solubility in water, in words [1]: slightly soluble in water; change of temperature over the wheal, in words [2]: practically no change in temperature; Tissue toxicity (tissue irritancy), in words [3]: tissue irritating |
| CCCCN1CCCCC1C(=O)Nc1c(C)cccc1C (racemic) [No. 4, N-n-butylpipecolic acid-2,6-xylidide] | 31.5 | −0.6 | – | – |
| Cc1cccc(C)c1NC(=O)C1CCCCN1C (racemic) [compound 1] | – | – | 3.5 | LD50 [5]: 40.3 mg/kg |
| CCN1CCCCC1C(=O)Nc1c(C)cccc1C (racemic) [compound 2] | – | – | 3.0 | LD50 [5]: 21 mg/kg |
| CCCN1CCCCC1C(=O)Nc1c(C)cccc1C (racemic) [compound 3] | – | – | 1.5 | – |
| CCCN1CCCC[C@H]1C(=O)Nc1c(C)cccc1C [L-N-n-propylpipecolic acid-2,6-xylidide] | 30.0 | −1.2 | 0.75 | anesthetic effects, intracutaneous wheal (Table 2), in words [6]: gives the optimal increase of anesthetic effects; change of temperature over the wheal, in words [2]: lowers the temperature over its wheal to approximately the same extent as the combination of lidocaine with adrenaline; anesthetic effects, finger-blockade (Table 3), in words [7]: gives the optimal increase of anesthetic effects |
| CCN1CCCC[C@@H]1C(=O)Nc1c(C)cccc1C [R-N-2-ethyl-pipecolic acid-2,6-xylidide] | – | – | – | T1 °C Intracutaneous Wheal ([2]; Conc. 1.0 %): 31.2 °C; °C Difference ([2]; Conc. 1.0 %): +0.5 °C |

Reference: patent EP0151110B1 (priority 1983, dated 1985)
